# Reference: US20110097274A1, “Carbon-11 and fluorine-18 labeled radioligands for positron emission tomography (PET) imaging for the brain serotonin transporters” (priority 2002, published 2011)
# Read-outs that look alike come from different tables or passages of the source.
# What was measured:
# [1] = biological target: T1, norepinephrine transporter (NET) (Homo sapiens, UniProt P23975); assay: In vitro binding affinity for NET, radioligand [^3H]nisoxetine (Table 1); set-up: species or system rat or human (cloned)
# T1 construct: host or cells: either rat cortical tissue or cells expressing the cloned human transporter
# T1 sequence (P23975 whole entry, species assumed): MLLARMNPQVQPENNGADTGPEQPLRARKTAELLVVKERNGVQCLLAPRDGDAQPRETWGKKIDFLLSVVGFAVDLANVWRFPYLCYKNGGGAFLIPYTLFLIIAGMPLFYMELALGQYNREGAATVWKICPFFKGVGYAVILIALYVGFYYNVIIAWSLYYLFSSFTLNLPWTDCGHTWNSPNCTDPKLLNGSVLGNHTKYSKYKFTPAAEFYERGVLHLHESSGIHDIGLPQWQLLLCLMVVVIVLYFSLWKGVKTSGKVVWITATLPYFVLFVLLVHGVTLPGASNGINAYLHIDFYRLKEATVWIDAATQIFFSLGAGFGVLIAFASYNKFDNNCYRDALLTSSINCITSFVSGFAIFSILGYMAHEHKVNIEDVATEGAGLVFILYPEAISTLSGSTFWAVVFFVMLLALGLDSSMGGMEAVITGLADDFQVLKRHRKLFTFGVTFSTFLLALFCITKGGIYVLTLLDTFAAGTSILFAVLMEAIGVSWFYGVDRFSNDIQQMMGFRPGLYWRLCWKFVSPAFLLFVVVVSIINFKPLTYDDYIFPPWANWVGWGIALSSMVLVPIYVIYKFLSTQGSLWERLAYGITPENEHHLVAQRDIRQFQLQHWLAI
# Method: (§1) Selected compounds were assayed in vitro for their binding affinity for the dopamine transporter (DAT), serotonin transporter (SERT), and norepinephrine transporter (NET) using membranes prepared from either the rat cortical tissues or cells expressed with cloned-human transporters and radioligands. Radioligands used were [^3H]paroxetine (SERT), [^3H]nisoxetine (NET), and [^3H]GBR12935 (DAT).
# [2] = biological target: T2, serotonin transporter (SERT) (Rattus norvegicus, UniProt P31652); assay: In vitro binding affinity for SERT, radioligand [^3H]paroxetine (Table 1); set-up: species or system rat or human (cloned)
# T2 construct: membranes prepared from either the rat cortical tissues or cells expressed with cloned-human transporters; from tissue; host or cells: rat cortical tissue membranes (inferred; the alternative is cells expressing cloned human SERT)
# T2 sequence (P31652 whole entry): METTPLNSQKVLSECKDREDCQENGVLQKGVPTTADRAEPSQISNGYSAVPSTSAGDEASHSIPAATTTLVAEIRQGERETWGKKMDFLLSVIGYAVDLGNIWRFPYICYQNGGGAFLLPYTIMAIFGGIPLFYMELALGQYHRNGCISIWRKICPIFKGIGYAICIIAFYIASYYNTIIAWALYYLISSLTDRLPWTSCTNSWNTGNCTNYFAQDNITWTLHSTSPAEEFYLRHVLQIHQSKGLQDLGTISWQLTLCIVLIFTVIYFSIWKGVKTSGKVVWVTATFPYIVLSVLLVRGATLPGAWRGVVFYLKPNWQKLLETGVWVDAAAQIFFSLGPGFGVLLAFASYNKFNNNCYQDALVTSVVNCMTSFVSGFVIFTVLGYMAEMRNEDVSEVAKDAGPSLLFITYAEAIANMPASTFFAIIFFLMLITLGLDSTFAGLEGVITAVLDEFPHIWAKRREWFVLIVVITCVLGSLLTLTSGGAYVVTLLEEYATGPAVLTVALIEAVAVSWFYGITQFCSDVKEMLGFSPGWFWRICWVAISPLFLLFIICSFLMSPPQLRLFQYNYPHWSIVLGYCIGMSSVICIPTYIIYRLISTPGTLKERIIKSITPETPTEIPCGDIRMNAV
# Method: as §1
# [3] = biological target: T3, dopamine transporter (DAT) (Homo sapiens, UniProt Q01959); assay: In vitro binding affinity for DAT, radioligand [^3H]GBR12935 (Table 1); set-up: species or system rat or human (cloned)
# T3 construct: host or cells: either rat cortical tissue or cells expressing the cloned human transporter
# T3 sequence (Q01959 whole entry, species assumed): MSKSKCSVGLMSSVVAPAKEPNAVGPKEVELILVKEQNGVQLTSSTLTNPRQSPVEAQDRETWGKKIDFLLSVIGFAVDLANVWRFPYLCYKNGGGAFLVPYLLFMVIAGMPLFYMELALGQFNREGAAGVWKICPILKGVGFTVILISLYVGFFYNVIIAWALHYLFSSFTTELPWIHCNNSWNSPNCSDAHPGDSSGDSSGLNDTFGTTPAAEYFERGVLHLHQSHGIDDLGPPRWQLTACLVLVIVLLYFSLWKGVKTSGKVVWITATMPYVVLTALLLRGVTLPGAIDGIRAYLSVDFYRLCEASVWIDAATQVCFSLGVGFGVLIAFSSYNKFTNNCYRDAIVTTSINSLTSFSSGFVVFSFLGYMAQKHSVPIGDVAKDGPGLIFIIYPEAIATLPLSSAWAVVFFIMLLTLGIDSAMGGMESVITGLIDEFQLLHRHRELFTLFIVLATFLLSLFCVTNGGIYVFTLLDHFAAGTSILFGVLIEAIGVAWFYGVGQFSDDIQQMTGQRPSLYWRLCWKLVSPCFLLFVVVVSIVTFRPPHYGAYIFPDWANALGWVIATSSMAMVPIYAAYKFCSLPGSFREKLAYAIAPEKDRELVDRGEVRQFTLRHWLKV
# Method: as §1
# SERT = assay: Experiment 5: PET brain imaging of ^11C and ^18F labeled AFM, AFA, AFE in one baboon; format: in vivo; details: one adult male baboon, n = 1 to 4 scans, two-compartment model
# Method: (§2) General scanning methods were as described in Huang et al. (2002). Arterial input function was measured and corrected for metabolites.
# Activity distributed in the brain in accordance to the known density distribution pattern of SERT (Laruelle et al., 1988). […] Data were analyzed with a two-compartment model, using the metabolite-corrected arterial time-activity curve as input function. This analysis provided the regional distribution volumes (VT, mL/g).
# The nonspecific distribution volume, measured as the distribution volume of the cerebellum (a region with negligible SERT density) was in a similar range for all tracers (10 to 30 mL/g, Table 16).
# The specific to nonspecific partition coefficient, V3″, was calculated as the ratio of VT in the region of interest (ROI) to cerebellum VT minus one. V3″ provides a measure related to receptor parameters as follows: […]
# [4] = Experiment 5: plasma clearance of ^11C and ^18F labeled AFM, AFA, AFE in one baboon; format: in vivo; details: one adult male baboon, n = 1 to 4 scans
# Method: as §2
# [5] = Biodistribution of labeled radioligands in male Sprague-Dawley rats; format: in vivo; details: mean ± SD, n = 3
# From the text: Appropriately labeled compounds were studied in animals to assess their binding characteristics in the brain. Procedures for these biodistribution studies are as follows. […] The brain regions (cerebellum, hippocampus, striatum, frontal cortex, thalamus and hypothalamus), along with samples of blood and part of the tail, were removed, weighed, and counted in a Packard Cobra II gamma counter. The percent injected dose (% ID) of the decay- and tail-corrected activity in the brain regions and blood were calculated based upon C-11 standards prepared from the injection solution, and the % ID/g were calculated using the tissue weights.
SMILES,% ID/g Blood ([5]; 10 min post-injection),% ID/g Cerebellum ([5]; 10 min post-injection),% ID/g Frontal Ctx. ([5]; 10 min post-injection),% ID/g Hippocamp. ([5]; 10 min post-injection),% ID/g Hypothal. ([5]; 10 min post-injection),% ID/g Striatum ([5]; 10 min post-injection),% ID/g Thalamus ([5]; 10 min post-injection),% ID/g Blood ([5]; 30 min post-injection),% ID/g Cerebellum ([5]; 30 min post-injection),% ID/g Frontal Ctx. ([5]; 30 min post-injection),% ID/g Hippocamp. ([5]; 30 min post-injection),% ID/g Hypothal. ([5]; 30 min post-injection),% ID/g Striatum ([5]; 30 min post-injection),% ID/g Thalamus ([5]; 30 min post-injection),% ID/g Blood ([5]; 60 min post-injection),% ID/g Cerebellum ([5]; 60 min post-injection),% ID/g Frontal Ctx. ([5]; 60 min post-injection),% ID/g Hippocamp. ([5]; 60 min post-injection),% ID/g Hypothal. ([5]; 60 min post-injection),% ID/g Striatum ([5]; 60 min post-injection),other results
"CN(C)Cc1ccccc1Sc1ccc(F)cc1N [AFA, 2-(2-(Dimethylaminomethyl)phenylthio)-5-fluorophenylamine]",–,–,–,–,–,–,–,–,–,–,–,–,–,–,–,–,–,–,–,–,Ki [1]: 142 nM; Ki ([2]; read-out: Ki SERT): 1.46 nM; Ki [3]: > 10000 nM
"CN(C)Cc1ccccc1Sc1ccc(CCF)cc1N [AFE, 2-(2-(Dimethylaminomethyl)phenylthio)-5-(2-fluoroethyl)phenylamine]",–,–,–,–,–,–,–,–,–,–,–,–,–,–,–,–,–,–,–,–,Ki [1]: 946 nM; Ki [2]: 1.88 nM; Ki [3]: > 10000 nM
"CN(C)Cc1ccccc1Sc1ccc(CCCF)cc1N [AFP, 2-(2-(Dimethylaminomethyl)phenylthio)-5-(3-fluoropropyl)-phenylamine]",–,–,–,–,–,–,–,–,–,–,–,–,–,–,–,–,–,–,–,–,Ki [1]: 505 nM; Ki [2]: 3.58 nM; Ki [3]: > 10000 nM
"Cc1ccc(Sc2ccccc2CN(C)C)c(N)c1 [MADAM, 2-(2-(Dimethylaminomethyl)phenylthio)-5-methylphenylamine]",–,–,–,–,–,–,–,–,–,–,–,–,–,–,–,–,–,–,–,–,Ki [1]: 320 nM; Ki [2]: 1.19 nM; Ki [3]: > 10000 nM
"CN([11CH3])Cc1ccccc1Sc1ccc(F)cc1N [[^11C]AFA, [^11C]2-[2-(Dimethylaminomethyl)phenylthio]-5-fluorophenylamine]",0.26 ± 0.10 % ID/g,0.35 ± 0.12 % ID/g,0.70 ± 0.25 % ID/g,0.48 ± 0.17 % ID/g,0.55 ± 0.18 % ID/g,0.54 ± 0.18 % ID/g,0.60 ± 0.24 % ID/g,0.08 ± 0.01 % ID/g,0.14 ± 0.02 % ID/g,0.49 ± 0.06 % ID/g,0.34 ± 0.02 % ID/g,0.47 ± 0.06 % ID/g,0.38 ± 0.14 % ID/g,0.44 ± 0.05 % ID/g,0.06 ± 0.01 % ID/g,0.09 ± 0.02 % ID/g,0.29 ± 0.05 % ID/g,0.24 ± 0.03 % ID/g,0.42 ± 0.06 % ID/g,0.26 ± 0.04 % ID/g,Cerebellum V (nonspecific distribution volume) (SERT): 13 ± 3 mL/g; Clearance [4]: 54 ± 6 L/h; % ID/g Thalamus ([5]; 60 min post-injection): 0.39 ± 0.04 % ID/g
"CN(C)Cc1ccccc1Sc1ccc(CCF)cc1N [[^11C]AFE, [^11C]2-[2-(Dimethylaminomethyl)phenylthio]-5-fluoroethylphenylamine]",0.15 ± 0.03 % ID/g,0.31 ± 0.03 % ID/g,0.61 ± 0.07 % ID/g,0.44 ± 0.04 % ID/g,0.61 ± 0.11 % ID/g,0.58 ± 0.08 % ID/g,0.63 ± 0.08 % ID/g,0.07 ± 0.01 % ID/g,0.12 ± 0.00 % ID/g,0.39 ± 0.03 % ID/g,0.31 ± 0.03 % ID/g,0.44 ± 0.04 % ID/g,0.35 ± 0.05 % ID/g,0.44 ± 0.05 % ID/g,0.05 ± 0.01 % ID/g,0.05 ± 0.00 % ID/g,0.19 ± 0.02 % ID/g,0.18 ± 0.02 % ID/g,0.29 ± 0.03 % ID/g,0.19 ± 0.02 % ID/g,Cerebellum V (nonspecific distribution volume) (SERT): 16 mL/g; Clearance [4]: 73 L/h; % ID/g Thalamus ([5]; 60 min post-injection): 0.22 ± 0.01 % ID/g
"Cc1ccc(Sc2ccccc2CN(C)[11CH3])c(N)c1 [[^11C]MADAM, [^11C]2-[2-(Dimethylaminomethyl)phenylthio]-5-methylphenylamine]",0.61 ± 0.15 % ID/g,1.04 ± 0.33 % ID/g,2.17 ± 0.78 % ID/g,1.39 ± 0.29 % ID/g,1.93 ± 0.72 % ID/g,1.57 ± 0.54 % ID/g,1.95 ± 0.61 % ID/g,0.26 ± 0.07 % ID/g,0.55 ± 0.04 % ID/g,1.78 ± 0.23 % ID/g,1.14 ± 0.17 % ID/g,1.48 ± 0.22 % ID/g,1.41 ± 0.21 % ID/g,1.66 ± 0.17 % ID/g,0.15 ± 0.04 % ID/g,0.27 ± 0.01 % ID/g,0.89 ± 0.07 % ID/g,0.84 ± 0.27 % ID/g,1.39 ± 0.28 % ID/g,0.81 ± 0.15 % ID/g,% ID/g Thalamus ([5]; 60 min post-injection): 1.14 ± 0.18 % ID/g
"CN(C)Cc1ccccc1Sc1ccc([18F])cc1N [[^18F]AFA, [^18F]2-[2-(Dimethylaminomethyl)phenylthio]-5-fluorophenylamine]",0.27 ± 0.01 % ID/g,0.38 ± 0.09 % ID/g,0.81 ± 0.26 % ID/g,0.54 ± 0.17 % ID/g,0.73 ± 0.26 % ID/g,0.65 ± 0.18 % ID/g,0.72 ± 0.24 % ID/g,0.16 ± 0.01 % ID/g,0.20 ± 0.01 % ID/g,0.65 ± 0.08 % ID/g,0.48 ± 0.02 % ID/g,0.66 ± 0.05 % ID/g,0.58 ± 0.05 % ID/g,0.69 ± 0.03 % ID/g,0.09 ± 0.00 % ID/g,0.07 ± 0.01 % ID/g,0.28 ± 0.05 % ID/g,0.23 ± 0.04 % ID/g,0.38 ± 0.03 % ID/g,0.26 ± 0.02 % ID/g,Cerebellum V (nonspecific distribution volume) (SERT): 24 mL/g; Clearance [4]: 68 L/h; % ID/g Thalamus ([5]; 60 min post-injection): 0.34 ± 0.05 % ID/g; % ID/g Blood ([5]; 90 min post-injection): 0.08 ± 0.01 % ID/g; % ID/g Cerebellum ([5]; 90 min post-injection): 0.05 ± 0.01 % ID/g; % ID/g Frontal Ctx. ([5]; 90 min post-injection): 0.20 ± 0.02 % ID/g; % ID/g Hippocamp. ([5]; 90 min post-injection): 0.18 ± 0.01 % ID/g; % ID/g Hypothal. ([5]; 90 min post-injection): 0.30 ± 0.06 % ID/g; % ID/g Striatum ([5]; 90 min post-injection): 0.19 ± 0.01 % ID/g; % ID/g Thalamus ([5]; 90 min post-injection): 0.23 ± 0.05 % ID/g; % ID/g Blood ([5]; 120 min post-injection): 0.07 ± 0.01 % ID/g; % ID/g Cerebellum ([5]; 120 min post-injection): 0.04 ± 0.00 % ID/g; % ID/g Frontal Ctx. ([5]; 120 min post-injection): 0.11 ± 0.02 % ID/g; % ID/g Hippocamp. ([5]; 120 min post-injection): 0.10 ± 0.01 % ID/g; % ID/g Hypothal. ([5]; 120 min post-injection): 0.17 ± 0.01 % ID/g; % ID/g Striatum ([5]; 120 min post-injection): 0.11 ± 0.02 % ID/g; % ID/g Thalamus ([5]; 120 min post-injection): 0.16 ± 0.02 % ID/g
"CN(C)Cc1ccccc1Sc1ccc(CC[18F])cc1N [[^18F]AFE, [^18F]2-[2-(Dimethylaminomethyl)phenylthio]-5-(2-fluoroethyl)phenylamine]",0.25 ± 0.01 % ID/g,0.28 ± 0.02 % ID/g,0.62 ± 0.08 % ID/g,0.38 ± 0.03 % ID/g,0.51 ± 0.05 % ID/g,0.51 ± 0.05 % ID/g,0.58 ± 0.08 % ID/g,0.13 ± 0.03 % ID/g,0.13 ± 0.01 % ID/g,0.32 ± 0.01 % ID/g,0.27 ± 0.04 % ID/g,0.41 ± 0.03 % ID/g,0.33 ± 0.01 % ID/g,0.39 ± 0.01 % ID/g,0.07 ± 0.02 % ID/g,0.06 ± 0.01 % ID/g,0.19 ± 0.04 % ID/g,0.17 ± 0.04 % ID/g,0.24 ± 0.04 % ID/g,0.21 ± 0.05 % ID/g,Cerebellum V (nonspecific distribution volume) (SERT): 19 mL/g; Clearance [4]: 71 L/h; % ID/g Thalamus ([5]; 60 min post-injection): 0.27 ± 0.04 % ID/g; % ID/g Blood ([5]; 90 min post-injection): 0.04 ± 0.01 % ID/g; % ID/g Cerebellum ([5]; 90 min post-injection): 0.03 ± 0.01 % ID/g; % ID/g Frontal Ctx. ([5]; 90 min post-injection): 0.08 ± 0.01 % ID/g; % ID/g Hippocamp. ([5]; 90 min post-injection): 0.09 ± 0.01 % ID/g; % ID/g Hypothal. ([5]; 90 min post-injection): 0.14 ± 0.02 % ID/g; % ID/g Striatum ([5]; 90 min post-injection): 0.10 ± 0.02 % ID/g; % ID/g Thalamus ([5]; 90 min post-injection): 0.17 ± 0.02 % ID/g; % ID/g Blood ([5]; 120 min post-injection): 0.02 ± 0.01 % ID/g; % ID/g Cerebellum ([5]; 120 min post-injection): 0.02 ± 0.00 % ID/g; % ID/g Frontal Ctx. ([5]; 120 min post-injection): 0.06 ± 0.00 % ID/g; % ID/g Hippocamp. ([5]; 120 min post-injection): 0.07 ± 0.00 % ID/g; % ID/g Hypothal. ([5]; 120 min post-injection): 0.10 ± 0.01 % ID/g; % ID/g Striatum ([5]; 120 min post-injection): 0.08 ± 0.01 % ID/g; % ID/g Thalamus ([5]; 120 min post-injection): 0.13 ± 0.02 % ID/g
